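Assay format: 96-well plates, 48-hour exposure. Here, GI50 denotes the concentration required for 50% inhibition of growth. At the TGI there is no net growth.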
Legend:
Assay in all cases: DTP human tumour cell line panel, 48 h
786-0 renal = tested on: 786-0 renal
A498 renal = tested on: A498 renal
A549 NSCLC = tested on: A549 NSCLC
ACHN renal = tested on: ACHN renal
BT-549 breast = tested on: BT-549 breast
CAKI-1 renal = tested on: CAKI-1 renal
CCRF-CEM leukemia = tested on: CCRF-CEM leukemia
COLO 205 colon = tested on: COLO 205 colon
DU-145 prostate = tested on: DU-145 prostate
EKVX NSCLC = tested on: EKVX NSCLC
HCC-2998 colon = tested on: HCC-2998 colon
HCT-116 colon = tested on: HCT-116 colon
HCT-15 colon = tested on: HCT-15 colon
HOP-62 NSCLC = tested on: HOP-62 NSCLC
HOP-92 NSCLC = tested on: HOP-92 NSCLC
HS 578T breast = tested on: HS 578T breast
HT29 colon = tested on: HT29 colon
IGROV1 ovarian = tested on: IGROV1 ovarian
K-562 leukemia = tested on: K-562 leukemia
LOX IMVI melanoma = tested on: LOX IMVI melanoma
MALME-3M melanoma = tested on: MALME-3M melanoma
MCF7 breast = tested on: MCF7 breast
MDA-MB-231 breast = tested on: MDA-MB-231 breast
MDA-MB-435 = tested on: MDA-MB-435
MOLT-4 leukemia = tested on: MOLT-4 leukemia
NCI-H226 lung = tested on: NCI-H226 lung
NCI-H23 lung = tested on: NCI-H23 lung
NCI-H460 lung = tested on: NCI-H460 lung
NCI-H522 lung = tested on: NCI-H522 lung
NCI/ADR-RES ovarian = tested on: NCI/ADR-RES ovarian
OVCAR-3 ovarian = tested on: OVCAR-3 ovarian
OVCAR-4 ovarian = tested on: OVCAR-4 ovarian
OVCAR-5 ovarian = tested on: OVCAR-5 ovarian
OVCAR-8 ovarian = tested on: OVCAR-8 ovarian
PC-3 prostate = tested on: PC-3 prostate
RPMI-8226 leukemia = tested on: RPMI-8226 leukemia
RXF 393 renal = tested on: RXF 393 renal
SF-268 CNS = tested on: SF-268 CNS
SF-295 CNS = tested on: SF-295 CNS
SF-539 CNS = tested on: SF-539 CNS
SK-MEL-2 melanoma = tested on: SK-MEL-2 melanoma
SK-MEL-28 melanoma = tested on: SK-MEL-28 melanoma
SK-MEL-5 melanoma = tested on: SK-MEL-5 melanoma
SK-OV-3 ovarian = tested on: SK-OV-3 ovarian
SN12C renal = tested on: SN12C renal
SNB-19 CNS = tested on: SNB-19 CNS
SNB-75 CNS = tested on: SNB-75 CNS
SR leukemia = tested on: SR leukemia
SW-620 colon = tested on: SW-620 colon
T-47D breast = tested on: T-47D breast
TK-10 renal = tested on: TK-10 renal
U251 CNS = tested on: U251 CNS
UACC-257 melanoma = tested on: UACC-257 melanoma
UACC-62 melanoma = tested on: UACC-62 melanoma
UO-31 renal = tested on: UO-31 renal
HL-60(TB) leukemia = tested on: HL-60(TB) leukemia
KM12 colon = tested on: KM12 colon
M14 melanoma = tested on: M14 melanoma

## Cn1c(NCC(CN2CCCC2)OC(=O)c2ccccc2)cc(=O)n(C)c1=O (stereo unspecified)
786-0 renal
  GI50: > 100 µM
  TGI: > 100 µM
A498 renal
  GI50: > 100 µM
  TGI: > 100 µM
A549 NSCLC
  GI50: > 100 µM
  TGI: > 100 µM
ACHN renal
  GI50: > 100 µM
  TGI: > 100 µM
BT-549 breast
  GI50: > 100 µM
  TGI: > 100 µM
CAKI-1 renal
  GI50: > 100 µM
  TGI: > 100 µM
CCRF-CEM leukemia
  GI50: 0.0757 µM
  TGI: 4.06 µM
COLO 205 colon
  GI50: > 100 µM
  TGI: > 100 µM
DU-145 prostate
  GI50: > 100 µM
  TGI: > 100 µM
EKVX NSCLC
  GI50: > 100 µM
  TGI: > 100 µM
HCC-2998 colon
  GI50: > 100 µM
  TGI: > 100 µM
HCT-116 colon
  GI50: > 100 µM
  TGI: > 100 µM
HCT-15 colon
  GI50: > 100 µM
  TGI: > 100 µM
HOP-62 NSCLC
  GI50: > 100 µM
  TGI: > 100 µM
HOP-92 NSCLC
  GI50: > 100 µM
  TGI: > 100 µM
HS 578T breast
  GI50: > 100 µM
  TGI: > 100 µM
HT29 colon
  GI50: > 100 µM
  TGI: > 100 µM
IGROV1 ovarian
  GI50: > 100 µM
  TGI: > 100 µM
K-562 leukemia
  GI50: > 100 µM
  TGI: > 100 µM
LOX IMVI melanoma
  GI50: > 100 µM
  TGI: > 100 µM
MALME-3M melanoma
  GI50: 8.69 µM
  TGI: 40.8 µM
MCF7 breast
  GI50: > 100 µM
  TGI: > 100 µM
MDA-MB-231 breast
  GI50: > 100 µM
  TGI: > 100 µM
MDA-MB-435
  GI50: > 100 µM
  TGI: > 100 µM
MOLT-4 leukemia
  GI50: > 100 µM
  TGI: > 100 µM
NCI-H226 lung
  GI50: > 100 µM
  TGI: > 100 µM
NCI-H23 lung
  GI50: > 100 µM
  TGI: > 100 µM
NCI-H460 lung
  GI50: > 100 µM
  TGI: > 100 µM
NCI-H522 lung
  GI50: > 100 µM
  TGI: > 100 µM
NCI/ADR-RES ovarian
  GI50: > 100 µM
  TGI: > 100 µM
OVCAR-3 ovarian
  GI50: > 100 µM
  TGI: > 100 µM
OVCAR-4 ovarian
  GI50: > 100 µM
  TGI: > 100 µM
OVCAR-5 ovarian
  GI50: > 100 µM
  TGI: > 100 µM
OVCAR-8 ovarian
  GI50: > 100 µM
  TGI: > 100 µM
PC-3 prostate
  GI50: > 100 µM
  TGI: > 100 µM
RPMI-8226 leukemia
  GI50: > 100 µM
  TGI: > 100 µM
RXF 393 renal
  GI50: > 100 µM
  TGI: > 100 µM
SF-268 CNS
  GI50: > 100 µM
  TGI: > 100 µM
SF-295 CNS
  GI50: > 100 µM
  TGI: > 100 µM
SF-539 CNS
  GI50: > 100 µM
  TGI: > 100 µM
SK-MEL-2 melanoma
  GI50: > 100 µM
  TGI: > 100 µM
SK-MEL-28 melanoma
  GI50: > 100 µM
  TGI: > 100 µM
SK-MEL-5 melanoma
  GI50: > 100 µM
  TGI: > 100 µM
SK-OV-3 ovarian
  GI50: > 100 µM
  TGI: > 100 µM
SN12C renal
  GI50: > 100 µM
  TGI: > 100 µM
SNB-19 CNS
  GI50: > 100 µM
  TGI: > 100 µM
SNB-75 CNS
  GI50: > 100 µM
  TGI: > 100 µM
SR leukemia
  GI50: > 100 µM
  TGI: > 100 µM
SW-620 colon
  GI50: > 100 µM
  TGI: > 100 µM
T-47D breast
  GI50: > 100 µM
  TGI: > 100 µM
TK-10 renal
  GI50: > 100 µM
  TGI: > 100 µM
U251 CNS
  GI50: > 100 µM
  TGI: > 100 µM
UACC-257 melanoma
  GI50: > 100 µM
  TGI: > 100 µM
UACC-62 melanoma
  GI50: > 100 µM
  TGI: > 100 µM
UO-31 renal
  GI50: > 100 µM
  TGI: > 100 µM

## Cc1cccc(N=C/C=C(\Cl)c2ccc3ccccc3c2)c1
786-0 renal
  TGI: 34.9 µM
A498 renal
  TGI: > 100 µM
A549 NSCLC
  TGI: > 100 µM
ACHN renal
  TGI: 30.7 µM
BT-549 breast
  TGI: 44.5 µM
CAKI-1 renal
  TGI: 34.5 µM
COLO 205 colon
  TGI: 45.8 µM
DU-145 prostate
  TGI: 36.9 µM
EKVX NSCLC
  TGI: > 100 µM
HCT-116 colon
  TGI: 9.02 µM
HCT-15 colon
  TGI: 28.2 µM
HL-60(TB) leukemia
  TGI: 38.5 µM
HOP-62 NSCLC
  TGI: 35.4 µM
HOP-92 NSCLC
  TGI: > 62.3 µM
HS 578T breast
  TGI: > 96.7 µM
HT29 colon
  TGI: > 62.7 µM
IGROV1 ovarian
  TGI: > 60.3 µM
K-562 leukemia
  TGI: 40 µM
KM12 colon
  TGI: 41 µM
LOX IMVI melanoma
  TGI: 9.27 µM
M14 melanoma
  TGI: 38 µM
MALME-3M melanoma
  TGI: 36.4 µM
MCF7 breast
  TGI: > 95.9 µM
MDA-MB-231 breast
  TGI: 33.6 µM
MDA-MB-435
  TGI: 39.8 µM
MOLT-4 leukemia
  TGI: 8.19 µM
NCI-H226 lung
  TGI: > 69.3 µM
NCI-H23 lung
  TGI: 34.5 µM
NCI-H460 lung
  TGI: > 80.9 µM
NCI-H522 lung
  TGI: > 78.7 µM
NCI/ADR-RES ovarian
  TGI: 47.7 µM
OVCAR-3 ovarian
  TGI: 32.3 µM
OVCAR-4 ovarian
  TGI: 41.2 µM
OVCAR-5 ovarian
  TGI: > 65.6 µM
OVCAR-8 ovarian
  TGI: 43 µM
PC-3 prostate
  TGI: 53.1 µM
RPMI-8226 leukemia
  TGI: 29 µM
RXF 393 renal
  TGI: > 56.9 µM
SF-268 CNS
  TGI: > 79.4 µM
SF-295 CNS
  TGI: > 58.7 µM
SF-539 CNS
  TGI: 40.7 µM
SK-MEL-2 melanoma
  TGI: 68.9 µM
SK-MEL-28 melanoma
  TGI: 63.6 µM
SK-MEL-5 melanoma
  TGI: 37.1 µM
SK-OV-3 ovarian
  TGI: 53.5 µM
SN12C renal
  TGI: 41.1 µM
SNB-19 CNS
  TGI: 33 µM
SNB-75 CNS
  TGI: > 58.2 µM
SR leukemia
  TGI: 8.24 µM
SW-620 colon
  TGI: > 66.5 µM
T-47D breast
  TGI: 37.2 µM
TK-10 renal
  TGI: 50.8 µM
U251 CNS
  TGI: 31 µM
UACC-257 melanoma
  TGI: 39.1 µM
UACC-62 melanoma
  TGI: 32.5 µM
UO-31 renal
  TGI: 34.4 µM

From PubChem BioAssay (NCI)
